Assay [1] addresses Serine/threonine-protein kinase PAK 2 (Homo sapiens) (UniProt Q13177). As to the kind of experiment: Selectivity interaction (KinomeScan (DiscoverX)) EUB0000595a PAK2. Conditions: at 10 µM.
For assay [2], the target named is T1, Serine/threonine-protein kinase TAO1 (Homo sapiens) (UniProt Q7L7X3).
T1 sequence (whole entry): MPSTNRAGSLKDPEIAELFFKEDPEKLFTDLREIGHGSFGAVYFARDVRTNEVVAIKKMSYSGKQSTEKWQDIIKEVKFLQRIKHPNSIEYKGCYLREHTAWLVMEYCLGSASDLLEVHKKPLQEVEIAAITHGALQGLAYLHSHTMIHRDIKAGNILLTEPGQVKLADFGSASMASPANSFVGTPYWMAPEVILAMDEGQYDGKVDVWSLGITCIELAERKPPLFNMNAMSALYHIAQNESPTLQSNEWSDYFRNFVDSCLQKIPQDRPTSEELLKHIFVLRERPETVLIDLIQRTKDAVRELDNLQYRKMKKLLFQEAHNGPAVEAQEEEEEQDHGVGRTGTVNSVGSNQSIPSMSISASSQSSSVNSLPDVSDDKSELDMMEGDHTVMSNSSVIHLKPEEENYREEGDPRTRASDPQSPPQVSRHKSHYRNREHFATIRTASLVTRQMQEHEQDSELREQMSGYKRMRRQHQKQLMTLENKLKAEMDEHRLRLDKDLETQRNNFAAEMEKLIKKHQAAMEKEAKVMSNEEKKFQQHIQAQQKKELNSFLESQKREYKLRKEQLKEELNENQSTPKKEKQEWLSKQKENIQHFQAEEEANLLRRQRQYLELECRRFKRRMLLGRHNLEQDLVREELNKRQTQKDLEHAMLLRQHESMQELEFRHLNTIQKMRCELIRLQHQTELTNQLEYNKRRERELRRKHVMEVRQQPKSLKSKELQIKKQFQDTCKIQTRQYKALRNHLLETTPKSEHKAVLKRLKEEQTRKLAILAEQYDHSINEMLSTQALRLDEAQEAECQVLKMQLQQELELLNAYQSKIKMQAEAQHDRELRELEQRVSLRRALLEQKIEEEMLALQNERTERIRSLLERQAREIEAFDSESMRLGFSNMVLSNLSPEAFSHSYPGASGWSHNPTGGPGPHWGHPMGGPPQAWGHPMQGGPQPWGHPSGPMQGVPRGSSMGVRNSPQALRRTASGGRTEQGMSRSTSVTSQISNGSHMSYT
As to the kind of experiment: Selectivity interaction (KinomeScan (DiscoverX)) EUB0000695a TAOK1. Conditions: at 100 nM.

The target in assay [3] is Casein kinase I isoform alpha (Homo sapiens, UniProt P48729). As to the kind of experiment: Selectivity interaction (ActivX KiNativ screen (kinase selectivity in THP-1 cell lysates)) EUB0000639a CSNK1A1. Format: subcellular. The note with it: lysate, at 0.04 µM.
Assay [4] addresses Proto-oncogene tyrosine-protein kinase Src (Homo sapiens, UniProt P12931). As to the kind of experiment: Selectivity interaction (Kinase panel (DSF assay)) EUB0001559a SRC. Background: Differential scanning fluorimetry follows unfolding on heating by fluorescence.
In assay [5] the target is RAC-alpha serine/threonine-protein kinase (Homo sapiens, UniProt P31749). As to the kind of experiment: Selectivity interaction (KinomeScan (DiscoverX)) EUB0000655a AKT1. The note with it: at 10 µM.
The target in assay [6] is T2, Serine/threonine-protein kinase ICK (Homo sapiens) (UniProt Q9UPZ9).
T2 sequence (whole entry): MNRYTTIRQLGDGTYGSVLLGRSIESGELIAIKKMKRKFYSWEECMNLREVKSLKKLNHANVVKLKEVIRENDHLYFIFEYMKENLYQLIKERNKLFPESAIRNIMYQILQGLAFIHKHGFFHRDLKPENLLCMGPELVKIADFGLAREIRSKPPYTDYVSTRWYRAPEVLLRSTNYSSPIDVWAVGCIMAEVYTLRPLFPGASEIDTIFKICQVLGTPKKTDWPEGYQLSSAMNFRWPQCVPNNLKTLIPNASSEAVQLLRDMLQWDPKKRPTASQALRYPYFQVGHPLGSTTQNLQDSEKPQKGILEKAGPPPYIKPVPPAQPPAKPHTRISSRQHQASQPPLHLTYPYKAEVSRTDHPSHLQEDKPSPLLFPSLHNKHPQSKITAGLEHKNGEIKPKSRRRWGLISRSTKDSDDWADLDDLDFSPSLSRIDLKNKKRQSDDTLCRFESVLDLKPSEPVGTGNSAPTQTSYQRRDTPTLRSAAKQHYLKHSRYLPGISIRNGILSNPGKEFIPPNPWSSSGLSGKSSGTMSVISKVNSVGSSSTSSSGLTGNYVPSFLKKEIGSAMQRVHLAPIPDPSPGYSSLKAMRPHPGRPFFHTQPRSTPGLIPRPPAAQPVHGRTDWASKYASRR
As to the kind of experiment: Selectivity interaction (KinomeScan (DiscoverX)) EUB0000655a ICK. Conditions: at 10 µM.

Assay [7] addresses MAP kinase-interacting serine/threonine-protein kinase 2 (Homo sapiens, UniProt Q9HBH9). As to the kind of experiment: Selectivity interaction (KinomeScan (DiscoverX)) EUB0000092b MKNK2. The note with it: at 10 µM.
In assay [8] the target is Serine/threonine-protein kinase N1 (Homo sapiens, UniProt Q16512). Briefly: Selectivity interaction (KinomeScan (DiscoverX)) EUB0000092b PKN1. The note with it: at 10 µM.
In assay [9] the target is T3, Myosin light chain kinase (Homo sapiens) (UniProt Q32MK0).
T3 sequence (whole entry): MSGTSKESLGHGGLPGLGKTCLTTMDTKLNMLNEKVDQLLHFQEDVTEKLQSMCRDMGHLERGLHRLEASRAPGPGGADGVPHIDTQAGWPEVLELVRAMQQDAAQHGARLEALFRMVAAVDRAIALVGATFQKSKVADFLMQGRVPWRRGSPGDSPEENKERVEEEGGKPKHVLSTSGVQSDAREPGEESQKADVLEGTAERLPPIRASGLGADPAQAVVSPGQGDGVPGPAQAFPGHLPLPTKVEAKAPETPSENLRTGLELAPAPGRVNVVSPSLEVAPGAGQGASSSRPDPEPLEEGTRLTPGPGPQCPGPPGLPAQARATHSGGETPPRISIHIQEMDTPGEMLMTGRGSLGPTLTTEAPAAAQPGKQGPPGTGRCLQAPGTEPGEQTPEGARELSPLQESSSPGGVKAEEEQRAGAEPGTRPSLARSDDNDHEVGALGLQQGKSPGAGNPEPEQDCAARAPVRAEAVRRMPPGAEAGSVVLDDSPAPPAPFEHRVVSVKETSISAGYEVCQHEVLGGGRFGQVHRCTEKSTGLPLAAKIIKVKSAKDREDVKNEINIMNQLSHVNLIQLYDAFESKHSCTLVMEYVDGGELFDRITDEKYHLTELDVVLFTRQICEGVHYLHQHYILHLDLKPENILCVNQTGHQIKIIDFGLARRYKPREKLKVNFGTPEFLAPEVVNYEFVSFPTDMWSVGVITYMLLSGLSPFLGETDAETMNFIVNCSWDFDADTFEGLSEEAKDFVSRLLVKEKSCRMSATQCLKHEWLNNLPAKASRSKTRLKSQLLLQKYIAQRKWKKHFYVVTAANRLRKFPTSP
As to the kind of experiment: Selectivity interaction (KinomeScan (DiscoverX)) EUB0001079a MYLK3. The note with it: at 1 µM.

Assay [10] relates to Leucine-rich repeat serine/threonine-protein kinase 2 (Homo sapiens), Q5S007 [G2019S]. As to the kind of experiment: Selectivity interaction (KinomeScan (DiscoverX)) EUB0000229b LRRK2. Conditions: at 1 µM.
Sequence of Leucine-rich repeat serine/threonine-protein kinase 2 (Homo sapiens), Q5S007 [G2019S] (Q5S007 whole entry G2019S): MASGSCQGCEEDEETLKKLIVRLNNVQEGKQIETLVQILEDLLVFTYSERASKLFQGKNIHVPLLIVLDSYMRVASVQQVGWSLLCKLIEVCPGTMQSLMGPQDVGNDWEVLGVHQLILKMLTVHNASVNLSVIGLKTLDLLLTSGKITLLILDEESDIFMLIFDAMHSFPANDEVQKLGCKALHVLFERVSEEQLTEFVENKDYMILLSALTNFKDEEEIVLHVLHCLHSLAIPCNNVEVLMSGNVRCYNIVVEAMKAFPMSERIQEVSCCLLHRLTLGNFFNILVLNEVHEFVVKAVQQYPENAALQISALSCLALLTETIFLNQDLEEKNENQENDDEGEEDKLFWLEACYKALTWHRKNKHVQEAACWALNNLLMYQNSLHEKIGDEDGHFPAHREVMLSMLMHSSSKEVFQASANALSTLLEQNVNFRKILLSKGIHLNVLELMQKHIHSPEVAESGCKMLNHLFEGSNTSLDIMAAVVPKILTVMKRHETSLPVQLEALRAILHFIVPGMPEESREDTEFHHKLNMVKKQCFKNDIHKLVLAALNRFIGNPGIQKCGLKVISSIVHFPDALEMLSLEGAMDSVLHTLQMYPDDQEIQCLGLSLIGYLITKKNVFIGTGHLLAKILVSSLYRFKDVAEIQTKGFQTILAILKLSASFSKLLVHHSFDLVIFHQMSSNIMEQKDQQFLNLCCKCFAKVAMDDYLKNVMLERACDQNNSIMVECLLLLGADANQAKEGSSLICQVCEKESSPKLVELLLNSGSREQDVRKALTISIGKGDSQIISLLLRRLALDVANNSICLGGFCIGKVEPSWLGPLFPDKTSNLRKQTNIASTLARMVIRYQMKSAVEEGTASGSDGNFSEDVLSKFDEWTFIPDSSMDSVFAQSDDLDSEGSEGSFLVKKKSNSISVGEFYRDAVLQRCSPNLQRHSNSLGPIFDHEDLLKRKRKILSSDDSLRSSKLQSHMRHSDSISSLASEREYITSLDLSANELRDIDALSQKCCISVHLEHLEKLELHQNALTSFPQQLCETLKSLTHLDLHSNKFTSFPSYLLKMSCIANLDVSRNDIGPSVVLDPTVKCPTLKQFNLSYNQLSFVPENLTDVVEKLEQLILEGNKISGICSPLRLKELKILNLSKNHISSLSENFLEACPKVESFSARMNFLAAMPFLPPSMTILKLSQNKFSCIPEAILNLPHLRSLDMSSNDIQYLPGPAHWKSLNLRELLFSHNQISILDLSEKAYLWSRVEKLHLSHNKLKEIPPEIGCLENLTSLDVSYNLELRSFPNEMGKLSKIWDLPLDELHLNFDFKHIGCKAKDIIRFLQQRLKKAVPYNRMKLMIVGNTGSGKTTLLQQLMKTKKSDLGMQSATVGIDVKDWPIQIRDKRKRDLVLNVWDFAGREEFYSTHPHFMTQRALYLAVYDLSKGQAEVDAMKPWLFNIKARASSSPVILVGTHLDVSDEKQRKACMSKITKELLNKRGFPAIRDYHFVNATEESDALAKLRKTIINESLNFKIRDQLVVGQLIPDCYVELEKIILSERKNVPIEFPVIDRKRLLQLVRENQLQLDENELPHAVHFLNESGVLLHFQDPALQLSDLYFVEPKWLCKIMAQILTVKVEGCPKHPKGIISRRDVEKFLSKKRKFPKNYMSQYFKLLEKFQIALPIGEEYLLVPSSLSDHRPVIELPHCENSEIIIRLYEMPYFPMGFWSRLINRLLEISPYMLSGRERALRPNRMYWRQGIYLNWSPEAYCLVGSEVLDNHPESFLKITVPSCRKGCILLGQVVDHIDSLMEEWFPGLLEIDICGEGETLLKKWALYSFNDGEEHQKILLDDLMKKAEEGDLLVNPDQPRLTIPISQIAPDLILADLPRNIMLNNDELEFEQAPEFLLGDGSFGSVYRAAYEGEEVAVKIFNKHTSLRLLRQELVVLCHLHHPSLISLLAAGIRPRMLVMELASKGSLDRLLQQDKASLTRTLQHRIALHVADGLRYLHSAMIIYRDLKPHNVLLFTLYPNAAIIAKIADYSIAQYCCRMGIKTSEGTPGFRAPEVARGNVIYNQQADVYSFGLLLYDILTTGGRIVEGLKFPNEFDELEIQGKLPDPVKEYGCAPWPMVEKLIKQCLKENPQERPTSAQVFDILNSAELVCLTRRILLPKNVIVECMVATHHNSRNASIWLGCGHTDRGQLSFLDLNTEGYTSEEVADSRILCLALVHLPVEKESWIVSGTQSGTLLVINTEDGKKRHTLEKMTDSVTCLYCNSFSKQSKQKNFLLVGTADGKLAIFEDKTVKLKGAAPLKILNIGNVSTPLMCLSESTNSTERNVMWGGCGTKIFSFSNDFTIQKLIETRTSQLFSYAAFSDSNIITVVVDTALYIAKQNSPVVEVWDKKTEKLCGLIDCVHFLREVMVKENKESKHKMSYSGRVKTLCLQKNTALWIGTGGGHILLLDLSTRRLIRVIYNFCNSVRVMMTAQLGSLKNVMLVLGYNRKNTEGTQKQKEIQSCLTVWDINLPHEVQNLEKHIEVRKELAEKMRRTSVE

Sequence of Serine/threonine-protein kinase PAK 2 (Homo sapiens) (Q13177 whole entry): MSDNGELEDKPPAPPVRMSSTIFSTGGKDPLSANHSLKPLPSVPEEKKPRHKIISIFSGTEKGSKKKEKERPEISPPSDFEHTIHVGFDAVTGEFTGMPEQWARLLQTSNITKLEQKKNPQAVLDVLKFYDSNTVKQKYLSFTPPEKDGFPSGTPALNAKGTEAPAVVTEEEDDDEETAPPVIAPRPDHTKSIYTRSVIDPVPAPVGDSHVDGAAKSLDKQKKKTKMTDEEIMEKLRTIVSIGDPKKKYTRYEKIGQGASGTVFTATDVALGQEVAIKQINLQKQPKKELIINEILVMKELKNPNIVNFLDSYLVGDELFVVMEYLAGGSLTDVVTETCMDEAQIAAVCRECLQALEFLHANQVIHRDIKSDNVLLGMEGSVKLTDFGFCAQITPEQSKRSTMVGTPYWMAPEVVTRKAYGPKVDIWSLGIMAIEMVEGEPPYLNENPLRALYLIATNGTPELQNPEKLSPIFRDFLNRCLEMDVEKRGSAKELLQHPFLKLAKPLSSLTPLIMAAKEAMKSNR
Sequence of Serine/threonine-protein kinase N1 (Q16512 2-942 limits assumed): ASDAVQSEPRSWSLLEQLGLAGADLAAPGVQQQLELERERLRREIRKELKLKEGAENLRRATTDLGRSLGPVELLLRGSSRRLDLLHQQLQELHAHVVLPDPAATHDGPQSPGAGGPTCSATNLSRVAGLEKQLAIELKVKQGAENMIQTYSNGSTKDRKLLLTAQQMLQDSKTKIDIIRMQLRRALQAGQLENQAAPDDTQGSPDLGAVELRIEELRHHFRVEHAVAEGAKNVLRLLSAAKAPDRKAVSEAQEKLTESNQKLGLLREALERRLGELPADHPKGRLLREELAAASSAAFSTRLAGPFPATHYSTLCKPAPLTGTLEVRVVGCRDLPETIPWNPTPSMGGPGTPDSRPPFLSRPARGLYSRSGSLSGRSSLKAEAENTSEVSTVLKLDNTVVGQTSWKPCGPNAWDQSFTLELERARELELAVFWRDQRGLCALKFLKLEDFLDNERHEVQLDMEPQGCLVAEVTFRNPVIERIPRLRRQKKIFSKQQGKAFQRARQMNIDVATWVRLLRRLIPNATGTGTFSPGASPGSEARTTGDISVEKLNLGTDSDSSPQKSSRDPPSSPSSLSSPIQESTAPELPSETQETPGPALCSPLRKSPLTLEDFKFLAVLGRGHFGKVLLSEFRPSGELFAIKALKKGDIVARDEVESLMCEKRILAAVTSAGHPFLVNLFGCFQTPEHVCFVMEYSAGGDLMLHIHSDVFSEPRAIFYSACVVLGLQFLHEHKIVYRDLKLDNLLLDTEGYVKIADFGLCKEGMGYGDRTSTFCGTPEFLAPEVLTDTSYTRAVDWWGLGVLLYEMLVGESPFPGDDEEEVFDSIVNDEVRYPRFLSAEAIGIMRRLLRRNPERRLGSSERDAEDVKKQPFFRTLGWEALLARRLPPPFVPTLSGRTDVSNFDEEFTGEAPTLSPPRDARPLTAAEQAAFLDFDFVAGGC
Sequence of RAC-alpha serine/threonine-protein kinase (P31749 whole entry): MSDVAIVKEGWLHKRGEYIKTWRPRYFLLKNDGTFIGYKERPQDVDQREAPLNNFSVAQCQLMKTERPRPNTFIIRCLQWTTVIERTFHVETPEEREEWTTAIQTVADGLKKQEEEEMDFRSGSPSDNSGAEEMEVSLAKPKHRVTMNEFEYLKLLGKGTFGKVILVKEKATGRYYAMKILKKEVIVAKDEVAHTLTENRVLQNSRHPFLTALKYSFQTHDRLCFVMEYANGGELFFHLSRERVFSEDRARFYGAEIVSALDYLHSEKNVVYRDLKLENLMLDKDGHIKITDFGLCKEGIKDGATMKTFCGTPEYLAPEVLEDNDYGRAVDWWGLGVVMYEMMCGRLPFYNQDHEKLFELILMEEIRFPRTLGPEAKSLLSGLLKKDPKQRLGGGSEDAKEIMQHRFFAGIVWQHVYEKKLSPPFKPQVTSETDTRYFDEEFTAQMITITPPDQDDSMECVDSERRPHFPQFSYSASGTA
Sequence of Casein kinase I isoform alpha (P48729 2-337 limits assumed): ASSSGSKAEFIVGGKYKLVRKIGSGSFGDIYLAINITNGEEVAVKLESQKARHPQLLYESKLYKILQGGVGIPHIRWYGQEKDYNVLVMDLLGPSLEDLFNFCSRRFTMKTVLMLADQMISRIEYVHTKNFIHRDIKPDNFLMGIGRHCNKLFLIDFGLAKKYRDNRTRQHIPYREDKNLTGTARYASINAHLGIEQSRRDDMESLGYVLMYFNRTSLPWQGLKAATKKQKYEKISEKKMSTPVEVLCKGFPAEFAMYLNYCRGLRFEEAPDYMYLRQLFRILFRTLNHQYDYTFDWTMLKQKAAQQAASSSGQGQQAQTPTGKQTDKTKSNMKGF

For the compound `COCC(=O)NC/C=C/c1ccc2ncnc(Nc3ccc(Oc4ccc(C)nc4)c(C)c3)c2c1` [CP-724714], the % of control in assay [1] was 87%.

As to `Cc1cc(F)c(C(=O)Nc2cccc(-c3nncn3C(C)C)n2)cc1-n1cnc(C2CC2)c1`, the % of control in assay [2] amounted to 100%.

Turning to `CC[C@@H]1[C@H](F)C(=O)N[C@@H]1COc1nccc2cc(C(N)=O)c(OC)cc12` [ZIMLOVISERTIB], the % of inhibition in [3] was -2.5%.

For `CN(C(=O)c1cnn2cccnc12)c1cc2c(cc1N1CCOCC1)C(=O)N(C[C@@H](F)C(C)(C)O)C2`, in assay [4], the dTM was -0.3 K.

As to `CN(C)CCOc1ccc(-c2nc(-c3ccncc3)c(-c3ccc4c(c3)CC/C4=N\O)[nH]2)cc1`, the % of control came to 97% in [5] and 100% in assay [6].

With `CCC(=O)N1CCN(c2ccc(-n3c(=O)ccc4cnc5ccc(-c6cnc7ccccc7c6)cc5c43)cc2C(F)(F)F)CC1`, the % of control turned out to be 54% in assay [7] and 92% in [8].

On to `Nc1cnc(N2CCc3cc(S(=O)(=O)Nc4c(F)cc(Cl)cc4F)cc(N4CCCC4=O)c32)nc1` [TP-020n], for which, in [9], the % of control was found to be 100%.

`COc1cc(N(C)c2ccnc3ccc(C(F)(F)F)cc23)cc(OC)c1OC` displayed a % binding in assay [10] of 100%.

Values taken from ChEMBL document CHEMBL5465560, “Selectivity Literature for EUbOPEN Chemogenomic Library” (2024).
